# How the values were obtained:
# [1] = system: Spodoptera littoralis (Egyptian Cotton Leaf Worm); assay: Spodoptera littoralis cotton leaf disc spray test; assay type: in vivo; conditions: foliar, 72 h, application rate 200 ppm, L1 larvae, 3 days after infestation, read-out: control (at least one of mortality, anti-feedant effect, and growth inhibition)
# Experimental: Spodoptera littoralis (Egyptian Cotton Leaf Worm)
# Cotton leaf discs were placed on agar in 24-well microtiter plates and sprayed with aqueous test solutions prepared from 10,000 ppm DMSO stock solutions. After drying the leaf discs were infested with five L1 larvae. The samples were assessed for mortality, anti-feedant effect, and growth inhibition in comparison to untreated samples 3 days after infestation. Control of Spodoptera littoralis by a test sample is when at least one of mortality, anti-feedant effect, and growth inhibition is higher than the untreated sample.
# [2] = system: Plutella xylostella (Diamond Back Moth); assay: Plutella xylostella artificial diet test; assay type: in vivo; conditions: 120 h, application rate 200 ppm, L2 larvae, 5 days after infestation, read-out: effect in at least one of the two categories (mortality or growth inhibition)
# Experimental: Plutella xylostella (Diamond Back Moth):
# 24-well microtiter plates with artificial diet were treated with aqueous test solutions prepared from 10,000 ppm DMSO stock solutions by pipetting. After drying, the plates were infested with L2 larvae (10 to 15 per well). The samples were assessed for mortality and growth inhibition in comparison to untreated samples 5 days after infestation. The following compounds gave an effect of at least 80% in at least one of the two categories (mortality or growth inhibition) at an application rate of 200 ppm: 1, 2, 3, 4, 5, 6, 7, 8, 9, 11 and 12.
# [3] = system: Diabrotica Balteata, (Corn Root Worm); assay: Diabrotica balteata maize sprout spray test; assay type: in vivo; conditions: 96 h, application rate 200 ppm, L2 larvae, 4 days after infestation, read-out: effect in at least one of the two categories (mortality or growth inhibition)
# Experimental: Diabrotica Balteata, (Corn Root Worm) Maize sprouts, placed on an agar layer in 24-well microtiter plates were treated with aqueous test solutions prepared from 10,000 ppm DMSO stock solutions by spraying. After drying, the plates were infested with L2 larvae (6 to 10 per well). The samples were assessed for mortality and growth inhibition in comparison to untreated samples 4 days after infestation. The following compounds gave an effect of at least 80% in at least one of the two categories (mortality or growth inhibition) at an application rate of 200 ppm: 1, 2, 3, 5 and 6.
# [4] = system: Thrips tabaci (Onion Thrips); assay: Thrips tabaci sunflower leaf disc spray test; assay type: in vivo; conditions: foliar, 144 h, application rate 200 ppm, population of mixed ages, 6 days after infestation
# Experimental: Thrips tabaci (Onion Thrips):
# (§1) Sunflower leaf discs were placed on agar in 24-well microtiter plates and sprayed with aqueous test solutions prepared from 10,000 ppm DMSO stock solutions. After drying the leaf discs were infested with a thrips population of mixed ages. The samples were assessed for mortality 6 days after infestation.
# [5] = system: Tetranychus urticae (Two-Spotted Spider Mite); assay: Tetranychus urticae bean leaf disc spray test; assay type: in vivo; conditions: foliar, 192 h
# Experimental: Tetranychus urticae (Two-Spotted Spider Mite):
# as §1, with “Bean” for “Sunflower”, “discs” for “discs were placed”, “were” for “and”, “mite” for “thrips”, “on mixed population (mobile stages) 8” for “6”
# [6] = system: Euschistus heros (Neotropical Brown Stink Bug); assay: Euschistus heros soybean leaf spray test; assay type: in vivo; conditions: 120 h, application rate 200 ppm, N2 nymphs, 5 days after infestation, read-out: effect in at least one of the two categories (mortality or growth inhibition)
# Experimental: Euschistus heros (Neotropical Brown Stink Bug)
# Soybean leaves on agar in 24-well microtiter plates were sprayed with aqueous test solutions prepared from 10,000 ppm DMSO stock solutions. After drying the leaves were infested with N2 nymphs. The samples were assessed for mortality and growth inhibition in comparison to untreated samples 5 days after infestation. The following compounds gave an effect of at least 80% in at least one of the two categories (mortality or growth inhibition) at an application rate of 200 ppm: 1
SMILES,mortality at 200 ppm [1] [%],percent effect (mortality or growth inhibition) at 200 ppm [2] [%],percent effect (mortality or growth inhibition) at 200 ppm [3] [%],mortality at 200 ppm [4] [%],mortality at 200 ppm [5] [%],melting point [°C],percent effect (mortality or growth inhibition) at 200 ppm [6] [%]
"CCN(C(=O)c1cc(-c2cc(-c3c(C(F)(F)F)c(OC(F)(F)C(F)C(F)(F)F)nn3C)no2)sc1Cl)C1(C#N)CC1 (stereo not shown) [Example 12, 2-chloro-N-(1-cyanocyclopropyl)-N-ethyl-5-[3-[5-(1,1,2,3,3,3-hexafluoropropoxy)-2-methyl-4-(trifluoromethyl)pyrazol-3-yl]isoxazol-5-yl]thiophene-3-carboxamide]",≥ 80,≥ 80,,,,,
"CN(C(=O)c1cc(-c2cc(-c3c(C(F)(F)F)c(OC(F)(F)C(F)C(F)(F)F)nn3C)no2)sc1Cl)C1CC1 (stereo not shown) [Example 8, 2-chloro-N-cyclopropyl-5-[3-[5-(1,1,2,3,3,3-hexafluoropropoxy)-2-methyl-4-(trifluoromethyl)pyrazol-3-yl]isoxazol-5-yl]-N-methyl-thiophene-3-carboxamide]",≥ 80,≥ 80,,,,,
"CN(C(=O)c1cc(-c2cc(-c3c(C(F)(F)F)c(OC(F)(F)C(F)C(F)(F)F)nn3C)no2)sc1C#N)C1CC1 (stereo not shown) [Example 2, 2-cyano-N-cyclopropyl-5-[3-[5-(1,1,2,3,3,3-hexafluoropropoxy)-2-methyl-4-(trifluoromethyl)pyrazol-3-yl]isoxazol-5-yl]-N-methyl-thiophene-3-carboxamide]",,≥ 80,≥ 80,≥ 80,≥ 80,,
"Cn1nc(OC(F)(F)C(F)C(F)(F)F)c(C(F)(F)F)c1-c1cc(-c2cc(C(=O)NC3CC3)c(Cl)s2)on1 (stereo not shown) [Example 7, 2-chloro-N-cyclopropyl-5-[3-[5-(1,1,2,3,3,3-hexafluoropropoxy)-2-methyl-4-(trifluoromethyl)pyrazol-3-yl]isoxazol-5-yl]thiophene-3-carboxamide]",≥ 80,≥ 80,,,,,
"CN(C(=O)c1cc(-c2cc(-c3c(C(F)(F)F)c(OC(F)(F)C(F)C(F)(F)F)nn3C)no2)sc1Cl)C1(C#N)CC1 (stereo not shown) [Example 11, 2-chloro-N-(1-cyanocyclopropyl)-5-[3-[5-(1,1,2,3,3,3-hexafluoropropoxy)-2-methyl-4-(trifluoromethyl)pyrazol-3-yl]isoxazol-5-yl]-N-methyl-thiophene-3-carboxamide]",≥ 80,≥ 80,,,,,
"Cn1nc(OC(F)(F)C(F)C(F)(F)F)c(C(F)(F)F)c1-c1cc(-c2cc(C(=O)NC3(C#N)CC3)c(Cl)s2)on1 (stereo not shown) [Example 10, 2-chloro-N-(1-cyanocyclopropyl)-5-[3-[5-(1,1,2,3,3,3-hexafluoropropoxy)-2-methyl-4-(trifluoromethyl)pyrazol-3-yl]isoxazol-5-yl]thiophene-3-carboxamide]",,,,,,218 to 219,
"CCN(C(=O)c1cc(-c2cc(-c3c(C(F)(F)F)c(OC(F)(F)C(F)C(F)(F)F)nn3C)no2)sc1C#N)C1(C#N)CC1 (stereo not shown) [Example 6, 2-cyano-N-(1-cyanocyclopropyl)-N-ethyl-5-[3-[5-(1,1,2,3,3,3-hexafluoropropoxy)-2-methyl-4-(trifluoromethyl)pyrazol-3-yl]isoxazol-5-yl]thiophene-3-carboxamide]",≥ 80,≥ 80,≥ 80,≥ 80,,,
"Cn1nc(OC(F)(F)C(F)C(F)(F)F)c(C(F)(F)F)c1-c1cc(-c2cc(C(=O)NC3(C#N)CC3)c(C#N)s2)on1 (stereo not shown) [Example 4, 2-cyano-N-(1-cyanocyclopropyl)-5-[3-[5-(1,1,2,3,3,3-hexafluoropropoxy)-2-methyl-4-(trifluoromethyl)pyrazol-3-yl]isoxazol-5-yl]thiophene-3-carboxamide]",,≥ 80,,≥ 80,,,
"CCN(C(=O)c1cc(-c2cc(-c3c(C(F)(F)F)c(OC(F)(F)C(F)C(F)(F)F)nn3C)no2)sc1C#N)C1CC1 (stereo not shown) [Example 3, 2-cyano-N-cyclopropyl-N-ethyl-5-[3-[5-(1,1,2,3,3,3-hexafluoropropoxy)-2-methyl-4-(trifluoromethyl)pyrazol-3-yl]isoxazol-5-yl]thiophene-3-carboxamide]",,≥ 80,≥ 80,≥ 80,,,
"CN(C(=O)c1cc(-c2cc(-c3c(C(F)(F)F)c(OC(F)(F)C(F)C(F)(F)F)nn3C)no2)sc1C#N)C1(C#N)CC1 (stereo not shown) [Example 5, 2-cyano-N-(1-cyanocyclopropyl)-5-[3-[5-(1,1,2,3,3,3-hexafluoropropoxy)-2-methyl-4-(trifluoromethyl)pyrazol-3-yl]isoxazol-5-yl]-N-methyl-thiophene-3-carboxamide]",≥ 80,≥ 80,≥ 80,≥ 80,,,
"CCN(C(=O)c1cc(-c2cc(-c3c(C(F)(F)F)c(OC(F)(F)C(F)C(F)(F)F)nn3C)no2)sc1Cl)C1CC1 (stereo not shown) [Example 9, 2-chloro-N-cyclopropyl-N-ethyl-5-[3-[5-(1,1,2,3,3,3-hexafluoropropoxy)-2-methyl-4-(trifluoromethyl)pyrazol-3-yl]isoxazol-5-yl]thiophene-3-carboxamide]",≥ 80,≥ 80,,,,,
"Cn1nc(OC(F)(F)C(F)C(F)(F)F)c(C(F)(F)F)c1-c1cc(-c2cc(C(=O)NC3CC3)c(C#N)s2)on1 (stereo not shown) [Example 1, 2-cyano-N-cyclopropyl-5-[3-[5-(1,1,2,3,3,3-hexafluoropropoxy)-2-methyl-4-(trifluoromethyl)pyrazol-3-yl]isoxazol-5-yl]thiophene-3-carboxamide]",≥ 80,≥ 80,≥ 80,≥ 80,≥ 80,,≥ 80

# — patent US11472797B2, “Pesticidally active pyrazole derivatives” (SYNGENTA PARTICIPATIONS AG, priority 2017, dated 2022)
